Data from patent US10562898B2, “Substituted benzenesulfonamides as inhibitors of alpha-4 beta-7 integrin activity” (EA PHARMA CO., LTD., priority 2016, dated 2020).

The compounds below were run against T1, α4β7 integrin (Homo sapiens, UniProt P13612+P26010) (assay: MAdCAM-1/α4β7 integrin binding inhibitory activity evaluation test (RPMI-8866 cells binding to MAdCAM-1/Fc)). Conditions: recombinant mouse MAdCAM-1/Fc, no serum.
T1 construct: a cell line RPMI-8866, which is known to express α4β7 integrin; endogenous in cells; host or cells: RPMI-8866 (human B cell line)
T1 sequence (P13612 34-1032): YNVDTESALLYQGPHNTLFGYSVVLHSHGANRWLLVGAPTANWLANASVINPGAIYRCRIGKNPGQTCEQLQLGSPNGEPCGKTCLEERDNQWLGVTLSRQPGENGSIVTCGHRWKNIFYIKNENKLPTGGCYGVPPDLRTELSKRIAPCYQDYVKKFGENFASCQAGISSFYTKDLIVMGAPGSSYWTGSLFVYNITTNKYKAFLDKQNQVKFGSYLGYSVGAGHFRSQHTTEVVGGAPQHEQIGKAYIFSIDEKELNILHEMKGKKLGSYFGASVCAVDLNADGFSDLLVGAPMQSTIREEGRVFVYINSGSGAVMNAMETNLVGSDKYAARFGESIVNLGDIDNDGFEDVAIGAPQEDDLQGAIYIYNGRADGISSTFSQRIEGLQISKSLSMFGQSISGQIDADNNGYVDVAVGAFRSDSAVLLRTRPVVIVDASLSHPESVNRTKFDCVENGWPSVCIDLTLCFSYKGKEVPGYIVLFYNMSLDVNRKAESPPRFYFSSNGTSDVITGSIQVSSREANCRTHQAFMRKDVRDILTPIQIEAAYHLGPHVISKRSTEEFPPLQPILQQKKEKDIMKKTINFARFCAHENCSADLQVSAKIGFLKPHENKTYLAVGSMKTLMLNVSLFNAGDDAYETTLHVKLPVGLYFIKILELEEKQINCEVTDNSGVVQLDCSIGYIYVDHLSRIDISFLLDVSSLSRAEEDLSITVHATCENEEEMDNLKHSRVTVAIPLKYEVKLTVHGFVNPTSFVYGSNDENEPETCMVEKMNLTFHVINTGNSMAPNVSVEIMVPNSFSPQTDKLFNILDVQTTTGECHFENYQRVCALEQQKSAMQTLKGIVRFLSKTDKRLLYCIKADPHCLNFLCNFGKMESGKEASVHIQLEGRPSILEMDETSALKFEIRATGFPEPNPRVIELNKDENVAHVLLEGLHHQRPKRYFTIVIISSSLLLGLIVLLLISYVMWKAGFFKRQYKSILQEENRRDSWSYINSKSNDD
T1 sequence (P26010 20-798): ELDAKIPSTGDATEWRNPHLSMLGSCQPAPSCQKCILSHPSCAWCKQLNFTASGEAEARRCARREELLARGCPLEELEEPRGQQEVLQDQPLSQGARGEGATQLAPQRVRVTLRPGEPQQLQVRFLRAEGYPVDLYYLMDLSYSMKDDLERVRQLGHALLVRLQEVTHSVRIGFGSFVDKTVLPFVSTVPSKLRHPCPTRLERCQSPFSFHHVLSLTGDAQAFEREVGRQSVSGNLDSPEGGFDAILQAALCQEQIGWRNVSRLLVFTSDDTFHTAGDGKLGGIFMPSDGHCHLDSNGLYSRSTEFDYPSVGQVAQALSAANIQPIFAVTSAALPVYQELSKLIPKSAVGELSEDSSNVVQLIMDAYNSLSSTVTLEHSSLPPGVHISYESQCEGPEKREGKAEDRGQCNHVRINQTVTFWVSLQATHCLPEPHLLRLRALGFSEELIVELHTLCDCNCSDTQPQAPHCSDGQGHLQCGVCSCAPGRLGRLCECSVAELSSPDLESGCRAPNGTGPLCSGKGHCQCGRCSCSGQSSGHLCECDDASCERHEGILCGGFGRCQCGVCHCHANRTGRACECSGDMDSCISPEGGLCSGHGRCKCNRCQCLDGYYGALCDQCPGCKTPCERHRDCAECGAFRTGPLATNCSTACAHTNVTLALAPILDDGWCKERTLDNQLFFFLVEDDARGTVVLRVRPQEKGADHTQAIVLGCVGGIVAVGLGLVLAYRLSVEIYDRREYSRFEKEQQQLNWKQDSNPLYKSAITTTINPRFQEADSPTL
Assay type: cell-based
Experimental: (2) MAdCAM-1/α4β7 Integrin Binding Inhibitory Activity Evaluation Test
Each test substance was measured in terms of an ability to inhibit the MAdCAM-1 binding of a human B cell line, namely, a cell line RPMI-8866, which is known to express α4β7 integrin.
A solution of recombinant mouse MAdCAM-1/Fc (R&D Systems, Inc.) (0.75 μg/mL) diluted with a buffer A (carbonate buffer, pH 9.6) was added in an amount of 50 μL/well to a 96-well microtiter plate, followed by incubation at 4° C. overnight. After the plate was washed with PBS once, 150 μL/well of Block Ace (Snow Brand Milk Products Co., Ltd.) was added, followed by incubation at room temperature for 2 hours. After removal, the plate was washed with PBS once.
Then, 100 μL of the RPMI-8866 cells (2×10^6 cells/mL) and 100 μL of the test substance at each of various concentrations diluted with a binding buffer (DMEM containing 40 mM HEPES, 0.2% BSA, and 4 mM MnCl2) were added on the plate coated with the MAdCAM-1/Fc (5×10^5 cells/well), followed by incubation at 30° C. for 15 to 60 minutes. After the cells were bound to the wells, the plate was washed with PBS to remove unbound cells. A buffer C (PBS containing 1.5% Triton X-100) in an amount 50 μL/well was added to the plate to lyse the bound RPMI-8866 cells. After 30 μL of a substrate buffer (Promega, CytoTox 96 Non-Radioactive Cytotoxicity Assay) was added to 30 μL of the cell lysate, a reaction was allowed to proceed at room temperature in the dark for 30 minutes. After 30 μL of a stop solution (Promega, CytoTox 96 Non-Radioactive Cytotoxicity Assay) was added to each, and then an absorbance at 490 nm was measured using a plate reader. The absorbance obtained here represents a detection result of an activity of lactate dehydrogenase (LDH) eluted in the supernatant of each well, that is, the absorbance is proportional to the number of RPMI-8866 cells bound to the MAdCAM-1 and thus remaining on the plate. The test was performed in duplicate. Provided that the absorbance of the well containing no test substance was 100%, a cell binding rate with the test substance at each of the various concentrations was figured out, and a concentration IC50 which brought about 50% binding inhibition was calculated.

| Compound | IC50 [nM] |
| --- | --- |
| Cn1c(=O)n(-c2ccc(C[C@H](NC(=O)c3cc(F)c(NS(=O)(=O)c4ccc(NC(=O)C(C)(C)C)cc4)cc3F)C(=O)O)cc2)c(=O)c2ccncc21 [Compound A1, (2S)-2-[[4-[[4-(2,2-dimethylpropanoylamino)phenyl]sulfonylamino]-2,5-difluoro-benzoyl]amino]-3-[4-(1-methyl-2,4-dioxo-pyrido[3,4-d]pyrimidin-3-yl)phenyl]propanoic acid] | 0.26 |
| CC(=O)Nc1ccc(S(=O)(=O)Nc2cc(F)c(C(=O)N[C@@H](Cc3ccc(-n4c(=O)c5ccncc5n(C)c4=O)cc3)C(=O)O)cc2F)cc1 [Compound A2] | 1.2 |
| CCC(CC)C(=O)Nc1ccc(S(=O)(=O)Nc2cc(F)c(C(=O)N[C@@H](Cc3ccc(-n4c(=O)c5ccncc5n(C)c4=O)cc3)C(=O)O)cc2F)cc1 [Compound A3] | 0.72 |
| CCC(CC)C(=O)Nc1ccc(S(=O)(=O)Nc2cc(F)c(C(=O)N[C@@H](Cc3ccc(-n4c(=O)c(C)c(C)n(C)c4=O)cc3)C(=O)O)cc2F)cc1 [Compound A4] | 0.85 |
| Cn1c(=O)n(-c2ccc(C[C@H](NC(=O)c3cc(F)c(NS(=O)(=O)c4ccc(NC(=O)NC(C)(C)C)cc4)cc3F)C(=O)O)cc2)c(=O)c2ccncc21 [Compound A5] | 2.3 |
| Cn1c(=O)n(-c2ccc(C[C@H](NC(=O)c3cc(F)c(NS(=O)(=O)c4ccc(NC(=O)C5CCNCC5)cc4)cc3F)C(=O)O)cc2)c(=O)c2ccncc21 [Compound A6, (2S)-2-[[2,5-difluoro-4-[[4-(piperidine-4-carbonylamino)phenyl]sulfonylamino]benzoyl]amino]-3-[4-(1-methyl-2,4-dioxo-pyrido[3,4-d]pyrimidin-3-yl)phenyl]propanoic acid] | 2.4 |
| Cn1c(=O)n(-c2ccc(C[C@H](NC(=O)c3cc(F)c(NS(=O)(=O)c4ccc(NC(=O)c5ccncc5)cc4)cc3F)C(=O)O)cc2)c(=O)c2ccncc21 [Compound A7] | 0.36 |
| Cc1c(C)n(C)c(=O)n(-c2ccc(C[C@H](NC(=O)c3cc(F)c(NS(=O)(=O)c4ccc(NC(=O)C(C)(C)C)cc4)cc3F)C(=O)O)cc2)c1=O [Compound A8] | 0.33 |
| Cn1c(=O)n(-c2ccc(C[C@H](NC(=O)c3cc(F)c(NS(=O)(=O)c4ccc(NC(=O)C(C)(C)C)s4)cc3F)C(=O)O)cc2)c(=O)c2ccncc21 [Compound A9] | 0.41 |
| Cc1c(C)n(C)c(=O)n(-c2ccc(C[C@H](NC(=O)c3cc(F)c(NS(=O)(=O)c4ccc(NC(=O)C(C)(C)C)s4)cc3F)C(=O)O)cc2)c1=O [Compound A10] | 0.38 |
| Cc1c(C)n(C)c(=O)n(-c2ccc(C[C@H](NC(=O)c3cc(F)c(NS(=O)(=O)c4cc(NC(=O)C(C)(C)C)cs4)cc3F)C(=O)O)cc2)c1=O [Compound A11] | 2 |
| Cn1c(=O)n(-c2ccc(C[C@H](NC(=O)c3cc(F)c(NS(=O)(=O)c4ccc(NC(=O)C(C)(C)C)c(F)c4)cc3F)C(=O)O)cc2)c(=O)c2ccncc21 [Compound A12] | 0.45 |
| Cn1c(=O)n(-c2ccc(C[C@H](NC(=O)c3cc(F)c(NS(=O)(=O)c4ccc(NC(=O)C5CCOCC5)cc4)cc3F)C(=O)O)cc2)c(=O)c2ccncc21 [Compound A14] | 0.38 |
| Cc1c(C)n(C)c(=O)n(-c2ccc(C[C@H](NC(=O)c3cc(F)c(NS(=O)(=O)c4ccc(NC(=O)C5CCOCC5)cc4)cc3F)C(=O)O)cc2)c1=O [Compound A15] | 0.93 |
| COC1(C(=O)Nc2ccc(S(=O)(=O)Nc3cc(F)c(C(=O)N[C@@H](Cc4ccc(-n5c(=O)c6ccncc6n(C)c5=O)cc4)C(=O)O)cc3F)cc2)CC1 [Compound A16] | 0.52 |
| COC1(C(=O)Nc2ccc(S(=O)(=O)Nc3cc(F)c(C(=O)N[C@@H](Cc4ccc(-n5c(=O)c(C)c(C)n(C)c5=O)cc4)C(=O)O)cc3F)cc2)CC1 [Compound A17] | 0.55 |
| Cn1c(=O)n(-c2ccc(C[C@H](NC(=O)c3cc(F)c(NS(=O)(=O)c4ccc(NC(=O)C(C)(C)CO)cc4)cc3F)C(=O)O)cc2)c(=O)c2ccncc21 [Compound A18] | 0.36 |
| Cc1c(C)n(C)c(=O)n(-c2ccc(C[C@H](NC(=O)c3cc(F)c(NS(=O)(=O)c4ccc(NC(=O)C(C)(C)C)cn4)cc3F)C(=O)O)cc2)c1=O [Compound A19] | 0.39 |
| Cc1c(C)n(C)c(=O)n(-c2ccc(C[C@H](NC(=O)c3cc(F)c(NS(=O)(=O)c4ccc(NC(=O)C5(C(F)(F)F)CC5)cc4)cc3F)C(=O)O)cc2)c1=O [Compound A20] | 0.25 |
| Cc1c(C)n(C)c(=O)n(-c2ccc(C[C@H](NC(=O)c3cc(F)c(NS(=O)(=O)c4ccc(NC(=O)C(C)(C)CO)cc4)cc3F)C(=O)O)cc2)c1=O [Compound A21] | 0.34 |
| Cc1c(C)n(C)c(=O)n(-c2ccc(C[C@H](NC(=O)c3cc(F)c(NS(=O)(=O)c4ccc(NC(=O)C5(O)CC5)cc4)cc3F)C(=O)O)cc2)c1=O [Compound A22] | 0.98 |
| Cn1c(=O)n(-c2ccc(C[C@H](NC(=O)c3cc(F)c(NS(=O)(=O)c4ccc(NC(=O)C5(O)CC5)cc4)cc3F)C(=O)O)cc2)c(=O)c2ccncc21 [Compound A23] | 1 |
| Cn1c(=O)n(-c2ccc(C[C@H](NC(=O)c3cc(F)c(NS(=O)(=O)c4ccc(NC(=O)C5(C(F)(F)F)CC5)cc4)cc3F)C(=O)O)cc2)c(=O)c2ccncc21 [Compound A24] | 0.3 |
| Cc1c(C)n(C)c(=O)n(-c2ccc(C[C@H](NC(=O)c3cc(F)c(NS(=O)(=O)c4ccc(NC(=O)C(C)(C)C)nc4)cc3F)C(=O)O)cc2)c1=O [Compound A25] | 1.1 |
| Cn1c(=O)n(-c2ccc(C[C@H](NC(=O)c3cc(F)c(NS(=O)(=O)c4ccc(NC(=O)C(C)(C)C)cc4)cc3F)C(=O)O)cn2)c(=O)c2ccncc21 [Compound A26] | 0.23 |
| Cn1c2c(c(=O)n(-c3ccc(C[C@H](NC(=O)c4cc(F)c(NS(=O)(=O)c5ccc(NC(=O)C(C)(C)C)cc5)cc4F)C(=O)O)cc3)c1=O)CCOC2 [Compound A27] | 0.36 |
